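Five compound concentrations were applied to cells in 96-well plates for 48 hours; endpoints were derived by simple linear interpolation of the resulting dose-response curve. Definition used: TGI = concentration required for complete inhibition of growth.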
Columns and labels:
Experiment in all cases: inhibition of tumour cell growth, NCI panel, 48 h
MDA-MB-435 = tested on: MDA-MB-435
HCT-116 colon = tested on: HCT-116 colon
ACHN renal = tested on: ACHN renal
A549 NSCLC = tested on: A549 NSCLC
OVCAR-4 ovarian = tested on: OVCAR-4 ovarian
NCI-H23 lung = tested on: NCI-H23 lung
NCI-H522 lung = tested on: NCI-H522 lung
MOLT-4 leukemia = tested on: MOLT-4 leukemia
SR leukemia = tested on: SR leukemia

Structure (SMILES) | TGI (MDA-MB-435) | TGI (HCT-116 colon) | TGI (ACHN renal) | TGI (A549 NSCLC) | TGI (OVCAR-4 ovarian) | TGI (NCI-H23 lung) | TGI (NCI-H522 lung) | TGI (MOLT-4 leukemia) | TGI (SR leukemia)
O=C1C=CC(=O)c2c(O)c(Nc3ccc(OC(F)(F)F)cc3)c(Cl)c(O)c21 | 2.17 µM | 0.455 µM | 2.76 µM | 11.7 µM | 2.98 µM | 0.708 µM | 2.87 µM | – | –
N[C@H]1CCc2c1nc1c(c2-c2ccccc2)CC[C@@H]1N | 30.2 µM | 45.6 µM | > 100 µM | > 100 µM | > 100 µM | 61.6 µM | 30.1 µM | 27.6 µM | > 100 µM
O=c1[nH]ncc2[nH]c3c(c12)CCCc1ccccc1-3 | 82.9 µM | > 100 µM | > 100 µM | > 100 µM | > 100 µM | > 100 µM | > 100 µM | > 100 µM | –
Cn1c2nc(=Nc3ccc(Cl)cc3)n3ccc4ccccc4c3c2c(=O)n1-c1ccccc1 | > 100 µM | > 100 µM | > 100 µM | – | > 100 µM | > 100 µM | > 100 µM | > 100 µM | > 100 µM
O=C(C1=CCC2(CC1)OCCO2)N(Cc1ccccc1)c1ccccc1I | 50.7 µM | 37.7 µM | 43.2 µM | > 100 µM | 34.4 µM | 44.1 µM | – | > 100 µM | > 100 µM
C[C@H](C(=O)N1C(=O)O[C@@H](c2ccccc2)[C@H]1C)[C@H](c1ccccc1)N(Cc1ccccc1)OC(=O)c1ccccc1 | > 100 µM | > 100 µM | > 100 µM | > 100 µM | > 100 µM | > 100 µM | > 100 µM | > 100 µM | –
CCCCCCCCCCCCCC/C(=C/OCC[N+](C)(C)C)OC(C)=O (tested in a mixture with another compound) | 7.49 µM | 11.2 µM | 14 µM | 6.87 µM | 7.7 µM | 7.65 µM | 5.07 µM | – | 4.57 µM
CN(C)CCCNC(=O)c1cc(NC(=O)CCCn2c3ccccc3c3ccccc32)cn1C | > 100 µM | > 100 µM | > 100 µM | > 100 µM | > 100 µM | > 100 µM | – | > 100 µM | –
Fc1ccc(C(OCCN2CC3CC2CN3CCCc2ccccc2)c2ccc(F)cc2)cc1 (stereo unspecified) | 20.5 µM | 18.5 µM | 23.7 µM | 26.6 µM | 25.8 µM | 23.8 µM | 21.2 µM | 12.5 µM | –
Cn1cc(C=C(C#N)C#N)c(=O)n(C)c1=O | > 100 µM | > 100 µM | > 100 µM | > 100 µM | > 100 µM | > 100 µM | > 100 µM | > 100 µM | –
C1CSCCSS[C@@H]2CCCCC2SC1 (stereo partly specified) | > 100 µM | > 100 µM | – | > 100 µM | > 100 µM | > 100 µM | > 100 µM | > 100 µM | > 100 µM
COC(=O)[C@@H]1C[C@H]2[C@H](c3ccccc3Br)[C@@H](OC(C)=O)[C@@H](OCc3ccccc3)ON2O1 | > 100 µM | > 100 µM | > 100 µM | > 100 µM | > 100 µM | > 100 µM | – | > 100 µM | > 100 µM
Cc1nnc2nc(-c3ccc(Cl)cc3Cl)cc(-c3ccc(Cl)cc3)n12 | > 100 µM | > 100 µM | > 100 µM | > 100 µM | 39.6 µM | > 100 µM | – | 96 µM | > 100 µM
CCCCNC(=O)C1=C(C)NC(C)=C(C(=O)NCCCC)C1 | > 100 µM | > 100 µM | > 100 µM | > 100 µM | > 100 µM | > 100 µM | – | > 100 µM | –
CN(C)c1ncc(-c2c[nH]c3ccccc23)nc1-c1c[nH]c2ccccc12 | 12.1 µM | 12 µM | 6.88 µM | 19.4 µM | 17.8 µM | – | – | 27.5 µM | 10.8 µM
COc1cc(CSc2ccc(O)cc2)cc(O)c1O | 94.6 µM | 49.7 µM | > 100 µM | > 100 µM | – | > 100 µM | 38.3 µM | > 100 µM | > 100 µM
O=c1oc2ccccc2c(O)c1C(c1ccc([N+](=O)[O-])cc1)c1c(O)c2ccccc2oc1=O | > 100 µM | > 100 µM | – | – | > 100 µM | > 100 µM | > 100 µM | > 100 µM | –
S=c1scc(-c2ccc(Cl)cc2)n1OC1CCCC1 | 79.3 µM | > 100 µM | 90.4 µM | > 100 µM | > 100 µM | > 100 µM | 54.2 µM | 67.7 µM | –
COc1cccc2c1[C@H](OC)[C@]13O[C@@]1(C2=O)[C@H](O)[C@H](C)[C@@](O)(C(=O)[C@@H]1O[C@H]1C)[C@@H]3O | 0.518 µM | – | 0.7 µM | 0.729 µM | 0.555 µM | 0.541 µM | 0.403 µM | > 47.6 µM | –

Source: PubChem BioAssay (NCI)
